According to ChEMBL document CHEMBL3351883, “β-Agarofurans and Sesquiterpene Pyridine Alkaloids from Maytenus spinosa” (J Nat Prod, 2014):
Active and inactive are the calls of the source. The rule behind the calls is not given here.

Tested on: Human immunodeficiency virus 1
Test: Antiviral activity against HIV1 infected in human C8166 cells after 72 hrs by p24 antigen based ELISA
Assay type: functional
Details: not given

| SMILES | inhibition | inhibition (INH) [%] |
| --- | --- | --- |
| CC(=O)OC[C@]12[C@H](OC(C)=O)[C@H](OC(C)=O)[C@@H]3[C@@H](OC(C)=O)[C@@]14O[C@@]3(C)COC(=O)c1cccnc1CCC(C)C(=O)O[C@@H]([C@H](OC(C)=O)[C@@H]2OC(C)=O)[C@]4(C)O (stereo partly specified) | inactive |  |
| CC(=O)OC[C@]12[C@H](OC(C)=O)[C@@H](OC(C)=O)[C@@H]3[C@@H](OC(C)=O)[C@@]14O[C@@]3(C)COC(=O)c1cnccc1CCC(C)C(=O)O[C@@H]([C@H](OC(C)=O)[C@@H]2OC(C)=O)[C@]4(C)O (stereo partly specified) | inactive |  |
| CC(=O)OC[C@]12[C@H](OC(C)=O)[C@@H](OC(C)=O)[C@@H]3[C@@H](O)[C@@]14O[C@@]3(C)COC(=O)c1cnccc1CCC(C)C(=O)O[C@@H]([C@H](OC(C)=O)[C@@H]2OC(C)=O)[C@]4(C)O (stereo partly specified) | inactive |  |
| CCC(C)C(=O)O[C@@H]1[C@H](OC(C)=O)[C@@H]2[C@@H](OC(C)=O)[C@]3(OC2(C)C)[C@H](C)C[C@H](OC(C)=O)[C@H](OC(=O)c2ccccc2)[C@@]13C (stereo partly specified) | inactive |  |
| CC(=O)OC[C@]12[C@H](OC(C)=O)[C@@H](OC(C)=O)[C@@H]3[C@@H](OC(=O)c4cccnc4)[C@@]14O[C@@]3(C)COC(=O)c1cnccc1CCC(C)C(=O)O[C@@H]([C@H](OC(C)=O)[C@@H]2OC(C)=O)[C@]4(C)O (stereo partly specified) | inactive |  |
| CC(=O)OC[C@]12[C@@H](OC(C)=O)[C@@H](OC(=O)c3ccccc3)[C@@H]3C[C@]1(OC3(C)C)[C@H](C)C[C@H](OC(C)=O)[C@@H]2OC(C)=O |  | 64.4 |
| CC(=O)OC[C@]12[C@H](OC(C)=O)[C@@H](O)[C@@H]3[C@@H](O)[C@@]14O[C@@]3(C)COC(=O)c1cnccc1CCC(C)C(=O)O[C@@H]([C@H](OC(C)=O)[C@@H]2OC(C)=O)[C@]4(C)O (stereo partly specified) | inactive |  |
| CC(=O)O[C@@H]1[C@@H]2[C@@H](OC(C)=O)[C@]3(OC2(C)C)[C@H](C)C[C@H](OC(C)=O)[C@H](OC(=O)c2ccccc2)[C@@]3(C)[C@@H]1OC(C)=O | inactive |  |
| CC(=O)OC[C@]12[C@H](OC(C)=O)[C@@H](OC(C)=O)[C@@H]3C(=O)[C@@]14O[C@@]3(C)COC(=O)c1cnccc1CCC(C)C(=O)O[C@@H]([C@H](OC(C)=O)[C@@H]2OC(C)=O)[C@]4(C)O (stereo partly specified) | inactive |  |
| CCCCCCCCCCCC(=O)O[C@@H]1[C@H]2[C@H](OC(C)=O)[C@@H](OC(C)=O)[C@]3(COC(C)=O)[C@@H](OC(C)=O)[C@@H](OC(C)=O)[C@@H]4OC(=O)C(C)CCc5ccncc5C(=O)OC[C@]2(C)O[C@]13[C@@]4(C)O (stereo partly specified) | inactive |  |
| CCC(C)C(=O)O[C@@H]1[C@@H]2[C@@H](OC(C)=O)[C@]3(OC2(C)C)[C@H](C)C[C@H](O)[C@H](OC(C)=O)[C@@]3(COC(C)=O)[C@@H]1OC(=O)c1ccccc1 (stereo partly specified) | inactive |  |
| CC(=O)OC[C@]12[C@H](OC(C)=O)[C@@H](OC(C)=O)[C@@H]3[C@@H](OC(=O)N(C)C)[C@@]14O[C@@]3(C)COC(=O)c1cnccc1CCC(C)C(=O)O[C@@H]([C@H](OC(C)=O)[C@@H]2OC(C)=O)[C@]4(C)O (stereo partly specified) | inactive |  |
| CC(=O)OC[C@]12[C@H](OC(=O)c3ccccc3)[C@@H](OC(C)=O)[C@@H]3[C@@H](OC(C)=O)[C@]1(OC3(C)C)[C@H](C)C[C@H](O)[C@@H]2OC(C)=O | inactive |  |
| CC(=O)OC[C@]12[C@H](OC(C)=O)[C@@H](OC(C)=O)[C@@H]3[C@@H](OC(=O)c4ccco4)[C@@]14O[C@@]3(C)COC(=O)c1cnccc1CCC(C)C(=O)O[C@@H]([C@H](OC(C)=O)[C@@H]2OC(C)=O)[C@]4(C)O (stereo partly specified) | inactive |  |
| CC(=O)OC[C@]12[C@H](OC(C)=O)[C@@H](OC(C)=O)[C@@H]3[C@@H](OC(=O)c4ccc(Br)cc4)[C@@]14O[C@@]3(C)COC(=O)c1cnccc1CCC(C)C(=O)O[C@@H]([C@H](OC(C)=O)[C@@H]2OC(C)=O)[C@]4(C)O (stereo partly specified) | inactive |  |
| CC(=O)OC[C@]12[C@H](OC(C)=O)[C@H](OC(C)=O)[C@@H]3[C@@H](OC(C)=O)[C@@]14O[C@@]3(C)COC(=O)c1cnccc1CCC(C)C(=O)O[C@@H]([C@H](OC(C)=O)[C@@H]2OC(C)=O)[C@]4(C)O (stereo partly specified) | inactive |  |
| CC(=O)OC[C@]12[C@H](OC(C)=O)[C@@H](OC(C)=O)[C@@H]3[C@@H](OC(C)=O)[C@@]14O[C@@]3(C)COC(=O)c1cccnc1CCC(C)C(=O)O[C@@H]([C@H](OC(C)=O)[C@@H]2OC(C)=O)[C@]4(C)O (stereo partly specified) | inactive |  |
| CC(=O)OC[C@@]12[C@H](OC(C)=O)[C@H](OC(C)=O)[C@@H]3[C@@H](OC(=O)c4ccccc4)[C@@]14O[C@@]3(C)COC(=O)c1cccnc1CC[C@H](C)C(=O)O[C@@H]([C@H](OC(C)=O)[C@@H]2OC(C)=O)[C@]4(C)O | inactive |  |
| CC(=O)OC[C@]12[C@H](OC(=O)c3ccccc3)[C@H](OC(=O)c3ccccc3)[C@@H]3[C@@H](OC(C)=O)[C@]1(OC3(C)C)[C@H](C)C[C@H](O)[C@@H]2OC(C)=O | inactive |  |
| CC(=O)O[C@@H]1[C@@H]2[C@@H](OC(C)=O)[C@]3(OC2(C)C)[C@H](C)C[C@H](O)[C@H](OC(C)=O)[C@@]3(C)[C@@H]1OC(=O)c1ccccc1 | inactive |  |
| CC(=O)O[C@@H]1[C@H]2[C@@H](OC(=O)c3ccccc3)[C@@H](OC(=O)c3ccccc3)[C@]3(C)[C@@H](OC(C)=O)[C@@H](OC(=O)c4ccccc4)C[C@@H](C)[C@@]13OC2(C)C | inactive |  |
| CC(=O)O[C@@H]1[C@H]2[C@@H](OC(=O)c3ccccc3)[C@@H](OC(=O)c3ccccc3)[C@]3(C)[C@@H](OC(C)=O)[C@@H](O)C[C@@H](C)[C@@]13OC2(C)C | inactive |  |
| CC(=O)OC[C@]12[C@H](OC(C)=O)[C@H](OC(=O)c3ccccc3)[C@@H]3[C@@H](OC(C)=O)[C@]1(OC3(C)C)[C@H](C)C[C@H](OC(C)=O)[C@@H]2OC(C)=O | inactive |  |
| CC(=O)OC[C@]12[C@H](OC(C)=O)C(=O)[C@@H]3[C@@H](O)[C@@]14O[C@@]3(C)COC(=O)c1cnccc1CCC(C)C(=O)O[C@@H]([C@H](OC(C)=O)[C@@H]2OC(C)=O)[C@]4(C)O (stereo partly specified) | inactive |  |
| CC(=O)OC[C@]12[C@H](OC(C)=O)C(=O)[C@@H]3[C@@H](OC(C)=O)[C@@]14O[C@@]3(C)COC(=O)c1ncccc1C[C@H](C)[C@H](C)C(=O)O[C@H]([C@@H](OC(C)=O)[C@@H]2OC(C)=O)[C@H]4C | inactive |  |

Tested on: not listed separately
Test: Cytotoxicity against human C8166 cells assessed as cell viability by MTT assay
Assay type: cell-based
Details: read-out: Activity

| SMILES | viability [%] |
| --- | --- |
| CC(=O)OC[C@]12[C@@H](OC(C)=O)[C@@H](OC(=O)c3ccccc3)[C@@H]3C[C@]1(OC3(C)C)[C@H](C)C[C@H](OC(C)=O)[C@@H]2OC(C)=O | 96 |
